Results from article PMC6273962, “Design, Synthesis and Structure-Activity Relationships of Novel Diaryl Urea Derivatives as Potential EGFR Inhibitors” (Molecules, 2016).

Molecular target: EGFR (Homo sapiens, UniProt P00533)
Assay: mobility shift kinase assay (Caliper, FAM-labeled peptide)
Format: biochemical

Sequence of EGFR (P00533 25-1210): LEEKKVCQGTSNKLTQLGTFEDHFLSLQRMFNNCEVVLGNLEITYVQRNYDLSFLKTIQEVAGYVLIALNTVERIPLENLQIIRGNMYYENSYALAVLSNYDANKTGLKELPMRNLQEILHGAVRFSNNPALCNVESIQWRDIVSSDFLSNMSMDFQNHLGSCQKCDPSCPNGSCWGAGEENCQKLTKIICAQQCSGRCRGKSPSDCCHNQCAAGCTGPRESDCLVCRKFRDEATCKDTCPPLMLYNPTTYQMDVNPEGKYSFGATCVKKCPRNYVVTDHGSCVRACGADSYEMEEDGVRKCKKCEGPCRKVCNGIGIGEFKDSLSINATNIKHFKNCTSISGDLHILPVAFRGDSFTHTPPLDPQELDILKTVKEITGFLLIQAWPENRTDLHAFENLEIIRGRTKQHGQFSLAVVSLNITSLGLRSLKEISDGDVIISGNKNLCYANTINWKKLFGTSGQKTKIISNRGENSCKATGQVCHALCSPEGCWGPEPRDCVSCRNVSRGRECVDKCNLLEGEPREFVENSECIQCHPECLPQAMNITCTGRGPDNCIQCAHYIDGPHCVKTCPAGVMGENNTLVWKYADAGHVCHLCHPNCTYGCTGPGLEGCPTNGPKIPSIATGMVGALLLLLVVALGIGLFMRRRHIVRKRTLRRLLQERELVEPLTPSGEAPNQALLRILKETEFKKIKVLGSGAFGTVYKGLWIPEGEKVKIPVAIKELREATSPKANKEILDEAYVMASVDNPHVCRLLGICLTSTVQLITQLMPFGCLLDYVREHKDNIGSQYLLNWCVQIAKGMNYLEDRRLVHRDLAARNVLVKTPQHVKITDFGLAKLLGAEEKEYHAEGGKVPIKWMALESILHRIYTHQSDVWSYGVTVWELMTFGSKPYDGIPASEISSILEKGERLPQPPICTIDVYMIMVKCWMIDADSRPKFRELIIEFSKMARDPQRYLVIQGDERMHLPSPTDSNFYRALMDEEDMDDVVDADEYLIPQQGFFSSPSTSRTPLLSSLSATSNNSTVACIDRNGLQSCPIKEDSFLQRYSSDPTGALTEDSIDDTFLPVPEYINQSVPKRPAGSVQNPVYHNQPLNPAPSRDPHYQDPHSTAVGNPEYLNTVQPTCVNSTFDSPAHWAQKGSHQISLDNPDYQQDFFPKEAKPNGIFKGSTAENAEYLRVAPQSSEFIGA

- IC50: 56 nM
Structure (SMILES): Cc1cccc(Cl)c1NC(=O)Nc1ccc(-c2nc(NCCN(C)C)c3ccccc3n2)cc1 [5a, 1-(2-Chloro-6-methylphenyl)-3-(4-(4-((2-(dimethylamino)ethyl)amino)quinazolin-2-yl)phenyl)urea]
